Laboratory results reported in ChEMBL document CHEMBL1201862, “PubChem BioAssay data set” (2004).
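Briefly, cells in 96-well plates were exposed to five compound concentrations for 48 h, and endpoints were estimated by linear interpolation. GI50 is the concentration that inhibits growth by half.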 Calls of active or inactive are those of the source. Rule as the data show it: active = GI50 up to about 1.1 µM and inactive = higher.

Assays:
Test in all cases: growth of human tumour cells (NCI), 48 h
OVCAR-8 = tested on: OVCAR-8
OVCAR-3 = tested on: OVCAR-3
NCI/ADR-RES = tested on: NCI/ADR-RES
ACHN = tested on: ACHN
U-251 = tested on: U-251
RPMI-8226 = tested on: RPMI-8226
MDA-MB-231 = tested on: MDA-MB-231
SW-620 = tested on: SW-620
SK-MEL-28 = tested on: SK-MEL-28
MDA-MB-435 = tested on: MDA-MB-435
NCI-H23 = tested on: NCI-H23
CAKI-1 = tested on: CAKI-1
NCI-H522 = tested on: NCI-H522
KM12 = tested on: KM12
HCT-116 = tested on: HCT-116
HOP-62 = tested on: HOP-62
NCI-H226 = tested on: NCI-H226
Hs-578T = tested on: Hs-578T
SNB-19 = tested on: SNB-19
A498 = tested on: A498

Measured: GI50

CN(C)CCCNc1cc(O)c2c(c1O)C(=O)c1ccccc1C2=O
inactive: OVCAR-8 12.6 µM | OVCAR-3 11.3 µM | NCI/ADR-RES 3.4 µM | ACHN 12.9 µM | U-251 13.2 µM | RPMI-8226 12.9 µM | MDA-MB-231 12.6 µM | SW-620 8.65 µM | SK-MEL-28 16.4 µM | MDA-MB-435 15.5 µM | NCI-H23 13.3 µM | CAKI-1 13 µM | NCI-H522 21.8 µM | KM12 9.4 µM | HCT-116 4.9 µM | HOP-62 11.1 µM | NCI-H226 18.2 µM | Hs-578T 29.2 µM | SNB-19 6.9 µM | A498 19.5 µM

COP(C)(=O)C1=CCN(C(=O)OCC[Si](C)(C)C)CC1 (stereo not given)
inactive: OVCAR-8 > 100 µM | OVCAR-3 > 100 µM | NCI/ADR-RES > 100 µM | ACHN > 100 µM | U-251 > 100 µM | RPMI-8226 > 100 µM | MDA-MB-231 > 100 µM | SW-620 > 100 µM | SK-MEL-28 > 100 µM | MDA-MB-435 > 100 µM | NCI-H23 > 100 µM | CAKI-1 > 100 µM | NCI-H522 > 100 µM | KM12 > 100 µM | HOP-62 > 100 µM | NCI-H226 > 100 µM | Hs-578T > 100 µM | SNB-19 > 100 µM | A498 > 100 µM

CC(=O)[C@]1(C)[C@H](C)O[C@](C)(CO)[C@H]1O[Si](C)(C)c1ccccc1
inactive: OVCAR-8 48 µM | OVCAR-3 55 µM | NCI/ADR-RES 37.3 µM | ACHN 46.7 µM | U-251 > 100 µM | RPMI-8226 35.2 µM | MDA-MB-231 45.5 µM | SW-620 73.6 µM | SK-MEL-28 87.1 µM | MDA-MB-435 50.1 µM | NCI-H23 20.5 µM | CAKI-1 17.9 µM | NCI-H522 23.2 µM | KM12 47.6 µM | HCT-116 38.4 µM | HOP-62 > 100 µM | NCI-H226 67.9 µM | Hs-578T 45 µM | SNB-19 > 100 µM | A498 > 100 µM

C=CC[C@H]1[C@H](O[Si](C)(C)C(C)(C)C)C=CC(=O)[C@@H]1CC(=O)OCC
inactive: OVCAR-8 16.4 µM | OVCAR-3 13.1 µM | NCI/ADR-RES 11 µM | ACHN 14.2 µM | U-251 14.6 µM | RPMI-8226 2.31 µM | MDA-MB-231 14.5 µM | SW-620 15.5 µM | SK-MEL-28 17.9 µM | MDA-MB-435 13.4 µM | NCI-H23 15.5 µM | CAKI-1 12.4 µM | NCI-H522 12.5 µM | KM12 13.4 µM | HCT-116 11.4 µM | HOP-62 17.5 µM | NCI-H226 14.8 µM | Hs-578T 19 µM | SNB-19 13 µM | A498 13.7 µM

O=C(O)C12C3CCC(CC3)C1(C(=O)O)C1CCC2C1 (stereo not given)
inactive: OVCAR-8 > 100 µM | OVCAR-3 > 100 µM | NCI/ADR-RES > 100 µM | ACHN > 100 µM | U-251 > 100 µM | RPMI-8226 > 100 µM | MDA-MB-231 > 100 µM | SW-620 > 100 µM | SK-MEL-28 > 100 µM | MDA-MB-435 > 100 µM | NCI-H23 > 100 µM | CAKI-1 > 100 µM | NCI-H522 86.1 µM | KM12 > 100 µM | HCT-116 > 100 µM | HOP-62 > 100 µM | NCI-H226 > 100 µM | Hs-578T > 100 µM | SNB-19 > 100 µM | A498 > 100 µM

Fc1cc(C2=C[C@H](c3ccc4c(c3)OCO4)NC(=S)N2)c(Cl)cc1Cl
inactive: OVCAR-8 41.2 µM | OVCAR-3 30.2 µM | NCI/ADR-RES 51.6 µM | ACHN 28.8 µM | U-251 22.9 µM | RPMI-8226 22.9 µM | MDA-MB-231 23.8 µM | SW-620 36 µM | SK-MEL-28 40.3 µM | MDA-MB-435 34.6 µM | NCI-H23 60.8 µM | CAKI-1 34.8 µM | NCI-H522 31.6 µM | KM12 38 µM | HCT-116 27.5 µM | HOP-62 39.5 µM | NCI-H226 59.2 µM | Hs-578T 70 µM | SNB-19 57.4 µM | A498 20.8 µM

Nc1ccc(OCCCc2c(-c3ccccc3)[nH]c(N)nc2=O)cc1
inactive: OVCAR-8 44.4 µM | OVCAR-3 25.2 µM | NCI/ADR-RES > 100 µM | ACHN 33.9 µM | U-251 69.5 µM | RPMI-8226 84.9 µM | MDA-MB-231 29.9 µM | SW-620 > 100 µM | SK-MEL-28 27.5 µM | MDA-MB-435 49.7 µM | NCI-H23 47.2 µM | CAKI-1 91.6 µM | NCI-H522 18.4 µM | KM12 67.8 µM | HCT-116 29 µM | HOP-62 20.6 µM | NCI-H226 31 µM | Hs-578T 12.3 µM | SNB-19 67.6 µM | A498 16.9 µM

O=C(O)c1nc2ccccc2nc1NCc1ccc(F)cc1
inactive: OVCAR-8 53.2 µM | OVCAR-3 42.2 µM | NCI/ADR-RES 30.2 µM | U-251 52.7 µM | RPMI-8226 60.4 µM | MDA-MB-231 68.7 µM | SW-620 63.8 µM | SK-MEL-28 > 100 µM | MDA-MB-435 > 100 µM | NCI-H23 54 µM | CAKI-1 62.4 µM | NCI-H522 48.9 µM | KM12 47.1 µM | HCT-116 41.6 µM | HOP-62 > 100 µM | NCI-H226 51.6 µM | Hs-578T 61.8 µM | SNB-19 47.5 µM | A498 > 100 µM

Nc1nc(Cl)c(N)c(NCC2(CO)CC(OCc3ccccc3)C2)n1 (stereo not given)
inactive: OVCAR-8 > 100 µM | OVCAR-3 > 100 µM | NCI/ADR-RES 48 µM | ACHN > 100 µM | U-251 > 100 µM | RPMI-8226 > 100 µM | MDA-MB-231 > 100 µM | SW-620 > 100 µM | SK-MEL-28 > 100 µM | MDA-MB-435 > 100 µM | NCI-H23 4.17 µM | CAKI-1 > 100 µM | NCI-H522 > 100 µM | KM12 > 100 µM | HCT-116 44.8 µM | HOP-62 > 100 µM | NCI-H226 > 100 µM | Hs-578T > 100 µM | SNB-19 > 100 µM | A498 76.4 µM

O=C1O/C(=C(/Cl)c2c3ccccc3cc3ccccc23)c2ccccc21
inactive: OVCAR-8 23.4 µM | OVCAR-3 20.1 µM | NCI/ADR-RES 35.2 µM | ACHN 24.5 µM | U-251 30.5 µM | RPMI-8226 20.3 µM | MDA-MB-231 19.9 µM | SW-620 30.7 µM | SK-MEL-28 40.7 µM | MDA-MB-435 22.2 µM | NCI-H23 26.1 µM | CAKI-1 33.4 µM | NCI-H522 29.8 µM | KM12 4.02 µM | HCT-116 3.03 µM | HOP-62 29.1 µM | NCI-H226 26.7 µM | Hs-578T 23 µM | SNB-19 20.3 µM | A498 27 µM

OC1CN2Cc3cc4c(cc3[C@]13C=C[C@@H](O)CC23)OCO4 (stereo not given in full)
inactive: OVCAR-8 29.2 µM | OVCAR-3 37.2 µM | NCI/ADR-RES 54.3 µM | ACHN 7.85 µM | U-251 30.8 µM | RPMI-8226 32.6 µM | MDA-MB-231 59.3 µM | SW-620 28 µM | SK-MEL-28 48.4 µM | MDA-MB-435 20 µM | NCI-H23 36.1 µM | CAKI-1 11.9 µM | NCI-H522 27.3 µM | KM12 18.1 µM | HCT-116 14.2 µM | HOP-62 41.1 µM | NCI-H226 > 100 µM | Hs-578T 57.5 µM | SNB-19 22.2 µM | A498 34.4 µM

CC(C)(C)CN1[C@@H]2CCCC[C@H]2N(CC(C)(C)C)P1(=O)C(O)/C=C/c1ccccc1 (stereo not given in full)
inactive: OVCAR-8 62.5 µM | OVCAR-3 34.6 µM | NCI/ADR-RES 32.7 µM | ACHN 28.9 µM | U-251 41.4 µM | RPMI-8226 19.5 µM | MDA-MB-231 45.9 µM | SW-620 34.2 µM | SK-MEL-28 76.7 µM | MDA-MB-435 42.1 µM | NCI-H23 56.6 µM | CAKI-1 59.8 µM | NCI-H522 26.7 µM | KM12 33.7 µM | HCT-116 29.8 µM | HOP-62 50.2 µM | NCI-H226 22.7 µM | Hs-578T 29.9 µM | SNB-19 26.8 µM | A498 28.6 µM

Cc1c(S(=O)(=O)c2ccccc2)c(N)n(Cc2ccccc2)c1C
inactive: OVCAR-8 > 100 µM | OVCAR-3 96.8 µM | NCI/ADR-RES > 100 µM | ACHN > 100 µM | U-251 > 100 µM | RPMI-8226 > 100 µM | MDA-MB-231 > 100 µM | SW-620 > 100 µM | SK-MEL-28 > 100 µM | MDA-MB-435 > 100 µM | NCI-H23 > 100 µM | CAKI-1 > 100 µM | NCI-H522 > 100 µM | KM12 > 100 µM | HCT-116 > 100 µM | NCI-H226 > 100 µM | Hs-578T 53.1 µM | SNB-19 > 100 µM | A498 > 100 µM

C[n+]1c(-c2ccc(/C=N\NC(=O)c3ccc(C(=O)N/N=C/c4ccc(-c5cn6ccsc6[n+]5C)cc4)cc3)cc2)cn2ccsc21
inactive: OVCAR-8 14.8 µM | OVCAR-3 11.6 µM | NCI/ADR-RES 17.7 µM | ACHN 17.9 µM | U-251 25.6 µM | RPMI-8226 14.2 µM | MDA-MB-231 21.4 µM | SW-620 18.5 µM | MDA-MB-435 15.8 µM | NCI-H23 17.8 µM | CAKI-1 18.7 µM | NCI-H522 31.1 µM | KM12 23 µM | HOP-62 17.9 µM | NCI-H226 16.9 µM | Hs-578T 19.9 µM | SNB-19 24.6 µM | A498 17.3 µM
